System: MicroTom cotyledon explants
Assay: Tissue browning severity on Agrobacterium-inoculated MicroTom cotyledon explants
Format: cell-based, Lycopersicon esculentum
Details: after 5 days on selection media
Procedure: This example describes the use of lipoic acid in an Agrobacterium-based tomato transformation process. MicroTom (a cultivar of tomato species: Lycopersicon esculentum) seeds from Tomato Growers (Ball Seed Co., West Chicago, Ill. USA) were surface-sterilized by first soaking for 10 min in sterile deionized water, removing the water, and then adding enough 70% ethanol to immerse the seeds for 1 min while stirring vigorously and then aspirating the ethanol. The seeds were rinsed 2× with sterile deionized water and then soaked in 25% Chlorox with 1-2 drops of Tween 20 for 10 min while stirring frequently. The seeds were rinsed 3× with sterile deionized water. The seeds were germinated in phytatrays containing Davis Germination medium (4.3 g/L MS salts, 2 ml/L Gamborg's B-5 500× salts, 20 g/L sucrose and 10 g/L agar) (approximately 120 seeds/container), and the phytatrays were wrapped with aluminum foil. The phytatray cultures were maintained at 28° C. under the dark for 5 days. After 5 days, the phytatray cultures were unwrapped and grown at 24° C. under a 16 h photoperiod for about 44 h.
Cotyledon explants were isolated from seedlings 7 days after sowing seeds on Davis Germination medium. Cotyledon explants were prepared by bathing them in 6 mL of TXD liquid medium (4.3 g/L MS salts, 2 mL/L Gamborg's B-5 500× salts, 4 mg/L pCPA (p-chlorophenoxyactic acid), 0.005 mg/L kinetin, and 30 g/L sucrose) to prevent desiccation and trimming them at both ends using a #15 feather blade. Immediately after the trimming, the cotyledon explants were gently placed on “feeder plates” containing UC2PC medium (2.2 g/L MS salts, 2.2 mL/L, Gamborg's B-5 500× salts, 0.2 mg/L 2,4-D, 4 mg/L pCPA, 0.1 mg/L kinetin, 30 g/L sucrose, 0.2 g/L potassium phosphate, 10 g/L agar, 8 mL/L acetosyringone (4.91 mg/mL), and 4 mL galacturonic acid (53.05 mg/mL)). The “feeder plates” are made by overlaying 2 mL of tobacco suspension cells and a sterile Whatman filter on the plates containing UC2PC medium. The cotyledon explants were gently poked with a sharp forceps (ASIM5311, Stainless French, made in Switzerland). Usually six to ten pokes were made per explant depending the size of cotyledons. Right after poking, the cotyledons were inoculated with Agrobacterium containing pMON15715 (FIG. 1) by adding 3 mL of the adjusted Agrobacterium solution on top of the cotyledons. The plates were incubated for 10 min at room temperature, and the Agrobacterium solution was aspirated with a sterile pipette. The cotyledons were then co-cultured for 2 days at 23-24° C. under a 16-h photoperiod. The co-culture plates were placed in plastic bags to keep the humidity, which is preferable for MicroTom growth.
[…] Three to four weeks after the induction stage, the cotyledons formed buds or shoots. Cotyledons with buds or shoots were separated by individual event and transferred to, shoot elongation medium E2 (SI-2 medium without IAA), supplemented with 100 mg/L kanamycin for two to four weeks. All culture plates were placed in a culture box, placed inside a plastic bag, and cultured at 23-24° C. under a 16 h photoperiod.
Evaluation of plants after transformation with pMON15715 (FIG. 1) as described above was carried out in multiple ways. About five days after selection, tissue browning severity within and around the poked region on cotyledon explants was measured under a dissecting microscope. Low tissue browning severity was determined as less than 30% of the pokes made on each cotyledon explant that produced browning tissue and the high tissue browning severity was determined as more than 30% of the pokes made on each explant that generated browning tissue 5 days after culturing on selection medium. All the treatments of lipoic acid at concentrations of 5, 10, 50 and 100 μM had 1.5- to 1.8-fold increases of the percentage of explants scored as low tissue browning severity, respectively, compared to the treatment without lipoic acid (Table 1).

O=C(O)CCCCC1CCSS1 (centres unmarked) [lipoic acid, 1,2-dithiolane-3-pentanoic acid]
% high browning (5 μM lipoic acid): 34.9%
% low browning (5 μM lipoic acid): 65.1%
% high browning (10 μM lipoic acid): 33.9%
% low browning (10 μM lipoic acid): 66.1%
% high browning (50 μM lipoic acid): 34.4%
% low browning (50 μM lipoic acid): 65.6%
% high browning (100 μM lipoic acid): 46%
% low browning (100 μM lipoic acid): 54%

Source: patent US20040133938A1, “Use of lipoic acid in plant culture media” (priority 2002, published 2004)
